In brackets after ≈: the same amount, converted by molar mass. Activity calls are given as the source filed them. No cut-off for these calls is given here.
Assays:
[1] = Chemical stability of the compound at pH 7.4; type: physicochemical; settings: buffer
[2] = biological target: T1, 1,4-dihydroxy-2-naphthoyl-CoA synthase (Mycobacterium tuberculosis) (UniProt P9WNP5); test: Inhibition of Mycobacterium tuberculosis MenB expressed in Escherichia coli BL21 (DE3) assessed as formation of DHNA-CoA from OSB-CoA at 50 uM by enzyme coupled-assay in presence of Escherichia coli MenE
T1 sequence (whole entry): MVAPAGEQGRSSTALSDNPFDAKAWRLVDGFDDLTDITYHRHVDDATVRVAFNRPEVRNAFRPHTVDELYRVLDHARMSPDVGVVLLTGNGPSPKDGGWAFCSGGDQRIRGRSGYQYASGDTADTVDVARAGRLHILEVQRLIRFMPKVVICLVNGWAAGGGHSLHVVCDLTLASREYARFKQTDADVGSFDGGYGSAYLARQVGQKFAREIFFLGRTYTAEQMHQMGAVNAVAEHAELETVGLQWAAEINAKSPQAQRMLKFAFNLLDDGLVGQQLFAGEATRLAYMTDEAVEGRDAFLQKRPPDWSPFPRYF

[3] = biological target: T2, 1,4-dihydroxy-2-naphthoyl-CoA synthase (Mycobacterium tuberculosis, UniProt P9WNP5); test: Inhibition of Mycobacterium tuberculosis MenB expressed in Escherichia coli BL21 (DE3) assessed as formation of DHNA-CoA from OSB-CoA by enzyme coupled-assay in presence of Escherichia coli MenE
T2 sequence (P9WNP5 whole entry): T1 sequence (whole entry)

[4] = test system: Mycobacterium tuberculosis; test: Antimycobacterial activity against Mycobacterium tuberculosis H37Rv after 5 to 7 days under […] condition by microplate dilution assay; type: functional
[5] = Half life of the compound at pH 7.4; type: physicochemical
[6] = biological target: T2, 1,4-dihydroxy-2-naphthoyl-CoA synthase; test: Inhibition of Mycobacterium tuberculosis MenB expressed in Escherichia coli BL21 (DE3) assessed as formation of DHNA-CoA from OSB-CoA by enzyme coupled-assay in presence of Escherichia coli MenE preincubated for 1 hr
[7] = biological target: T2, 1,4-dihydroxy-2-naphthoyl-CoA synthase; test: Inhibition of Mycobacterium tuberculosis MenB expressed in Escherichia coli BL21 (DE3) by Lineweaver-Burk plot analysis
[8] = biological target: T2, 1,4-dihydroxy-2-naphthoyl-CoA synthase; test: Non-competitive inhibition of Mycobacterium tuberculosis MenB expressed in Escherichia coli BL21 (DE3) by Lineweaver-Burk plot analysis
[9] = test system: Mycobacterium tuberculosis; test: Antibacterial activity against non-replicating Mycobacterium tuberculosis H37Rv by low oxygen recovery assay; type: functional
[10] = Selectivity index, ratio of cytotoxicity against african green monkey Vero cells to MIC for Mycobacterium tuberculosis H37Rv; type: functional

O=C(CC(NC(=O)c1ccccc1)C(=O)O)c1ccc(Cl)cc1 (stereo not drawn)
Stability [1]: Stable
inhibition [2]: inactive

C[C@H](NC(CC(=O)c1ccccc1C(F)(F)F)C(=O)O)c1ccccc1 (stereo partly drawn)
IC50 [3]: > 120 µM
MIC [4]: 25 µg/mL (≈ 68.4 µM)
half-life [5]: 0.2 h
IC50 [6]: 3.2 µM

C[C@H](NC(CC(=O)c1ccccc1)C(=O)O)c1ccccc1 (stereo partly drawn)
IC50 [3]: > 120 µM
MIC [4]: 6.25 µg/mL (≈ 21 µM)
half-life [5]: 11.6 h
IC50 [6]: 52.7 µM

CC(C)(COP(=O)(O)OP(=O)(O)OC[C@H]1O[C@@H](n2cnc3c(N)ncnc32)[C@H](O)[C@@H]1OP(=O)(O)O)[C@@H](O)C(=O)NCCC(=O)NCCSC(CC(=O)c1ccccc1Br)C(=O)O (stereo partly drawn)
IC50 [3]: 0.135 µM

C[C@H](NC(CC(=O)c1ccccc1Cl)C(=O)O)c1ccccc1 (stereo partly drawn)
IC50 [3]: > 120 µM
MIC [4]: 50 µg/mL (≈ 151 µM)
half-life [5]: 0.4 h
IC50 [6]: 8.4 µM

CC(C(=O)c1ccc(Cl)cc1)C(N[C@@H](C)c1ccccc1)C(=O)O (stereo partly drawn)
Stability [1]: Stable
inhibition [2]: Active

CC(C)(COP(=O)(O)OP(=O)(O)OC[C@H]1O[C@@H](n2cnc3c(N)ncnc32)[C@H](O)[C@@H]1OP(=O)(O)O)[C@@H](O)C(=O)NCCC(=O)NCCSC(CC(=O)c1ccccc1I)C(=O)O (stereo partly drawn)
IC50 [3]: 0.421 µM

CC(C)(COP(=O)(O)OP(=O)(O)OC[C@H]1O[C@@H](n2cnc3c(N)ncnc32)[C@H](O)[C@@H]1OP(=O)(O)O)[C@@H](O)C(=O)NCCC(=O)NCCSC(CC(=O)c1ccccc1Cl)C(=O)O (stereo partly drawn)
IC50 [3]: 0.103 µM
Ki [7]: 0.097 µM
Ki [8]: 0.792 µM

COC(=O)/C=C/C(=O)c1ccc(Cl)cc1
MIC [9]: 1.5 µg/mL (≈ 6.68 µM)
MIC [4]: 0.64 µg/mL (≈ 2.85 µM)
Selectivity Index [10]: >20

O=C(CC1N=C(c2ccccc2)OC1=O)c1ccc(Cl)cc1 (stereo not drawn)
Stability [1]: Stable
inhibition [2]: inactive

CC(C)(COP(=O)(O)OP(=O)(O)OC[C@H]1O[C@@H](n2cnc3c(N)ncnc32)[C@H](O)[C@@H]1OP(=O)(O)O)[C@@H](O)C(=O)NCCC(=O)NCCSC(CC(=O)c1ccccc1F)C(=O)O (stereo partly drawn)
IC50 [3]: 0.204 µM

COC(=O)/C=C/C(=O)c1ccc(F)cc1
MIC [4]: 0.64 µg/mL (≈ 3.07 µM)
Selectivity Index [10]: >20

C[C@H](NC(CC(O)c1ccc(Cl)cc1)C(=O)O)c1ccccc1 (stereo partly drawn)
Stability [1]: Stable
inhibition [2]: inactive

COc1ccccc1C(=O)CC(N[C@@H](C)c1ccccc1)C(=O)O (stereo partly drawn)
IC50 [3]: > 120 µM
MIC [4]: 12.5 µg/mL (≈ 38.2 µM)
half-life [5]: 11.6 h
IC50 [6]: > 120 µM

COc1ccc(C(=O)CC(SCCNC(=O)CCNC(=O)[C@H](O)C(C)(C)COP(=O)(O)OP(=O)(O)OC[C@H]2O[C@@H](n3cnc4c(N)ncnc43)[C@H](O)[C@@H]2OP(=O)(O)O)C(=O)O)cc1 (stereo partly drawn)
IC50 [3]: 33.5 µM

C[C@H](NC(C(=O)O)C(C)(C)C(=O)c1ccccc1)c1ccccc1 (stereo partly drawn)
Stability [1]: Stable
inhibition [2]: inactive

COc1ccccc1C(=O)CC(SCCNC(=O)CCNC(=O)[C@H](O)C(C)(C)COP(=O)(O)OP(=O)(O)OC[C@H]1O[C@@H](n2cnc3c(N)ncnc32)[C@H](O)[C@@H]1OP(=O)(O)O)C(=O)O (stereo partly drawn)
IC50 [3]: 12.1 µM

CC(C)(COP(=O)(O)OP(=O)(O)OC[C@H]1O[C@@H](n2cnc3c(N)ncnc32)[C@H](O)[C@@H]1OP(=O)(O)O)[C@@H](O)C(=O)NCCC(=O)NCCSC(CC(=O)c1ccc(Cl)cc1Cl)C(=O)O (stereo partly drawn)
IC50 [3]: 0.106 µM
Ki [7]: 0.049 µM
Ki [8]: 0.286 µM

CC(C)(COP(=O)(O)OP(=O)(O)OC[C@H]1O[C@@H](n2cnc3c(N)ncnc32)[C@H](O)[C@@H]1OP(=O)(O)O)[C@@H](O)C(=O)NCCC(=O)NCCSCCC(=O)c1ccc(Cl)cc1Cl
IC50 [3]: > 400 µM

C[C@H](NC(CC(=O)c1ccc(Cl)cc1)C(=O)O)c1ccccc1 (stereo partly drawn)
IC50 [3]: > 120 µM
MIC [4]: 50 µg/mL (≈ 151 µM)
half-life [5]: 6.8 h
IC50 [6]: 11.7 µM

CC(C)(COP(=O)(O)OP(=O)(O)OC[C@H]1O[C@@H](n2cnc3c(N)ncnc32)[C@H](O)[C@@H]1OP(=O)(O)O)[C@@H](O)C(=O)NCCC(=O)NCCSC(=O)CCC(=O)c1ccc(Cl)cc1Cl
IC50 [3]: 2.2 µM

C[C@H](NC(CC(=O)c1ccc(F)cc1)C(=O)O)c1ccccc1 (stereo partly drawn)
IC50 [3]: > 120 µM
MIC [4]: 12.5 µg/mL (≈ 39.6 µM)
half-life [5]: 12.2 h
IC50 [6]: 14.4 µM

C[C@H](NC(C(=O)O)C(F)(F)C(=O)c1ccc(Cl)cc1)c1ccccc1 (stereo partly drawn)
Stability [1]: Stable
inhibition [2]: inactive

[2H]C([2H])(C(=O)c1ccccc1Cl)C(N[C@@H](C)c1ccccc1)C(=O)O (stereo partly drawn)
Stability [1]: Stable

CC(C)(COP(=O)(O)OP(=O)(O)OC[C@H]1O[C@@H](n2cnc3c(N)ncnc32)[C@H](O)[C@@H]1OP(=O)(O)O)[C@@H](O)C(=O)NCCC(=O)NCCSC(CC(=O)c1ccccc1[N+](=O)[O-])C(=O)O (stereo partly drawn)
IC50 [3]: 0.154 µM

O=C(O)/C=C/C(=O)c1ccc(Cl)cc1
MIC [4]: 25 µg/mL (≈ 119 µM)

CC(C)(COP(=O)(O)OP(=O)(O)OC[C@H]1O[C@@H](n2cnc3c(N)ncnc32)[C@H](O)[C@@H]1OP(=O)(O)O)[C@@H](O)C(=O)NCCC(=O)NCCSC(CC(=O)c1ccc(Cl)cc1)C(=O)O (stereo partly drawn)
IC50 [3]: 0.468 µM
Ki [7]: 0.35 µM
Ki [8]: 1.63 µM

CC(C)(COP(=O)(O)OP(=O)(O)OC[C@H]1O[C@@H](n2cnc3c(N)ncnc32)[C@H](O)[C@@H]1OP(=O)(O)O)[C@@H](O)C(=O)NCCC(=O)NCCSC(CC(=O)c1cccc(Cl)c1)C(=O)O (stereo partly drawn)
IC50 [3]: 14.1 µM

C[C@H](SC(CC(=O)c1ccc(Cl)cc1)C(=O)O)c1ccccc1 (stereo partly drawn)
Stability [1]: Stable
inhibition [2]: inactive

From ChEMBL document CHEMBL2021819, “CoA Adducts of 4-Oxo-4-Phenylbut-2-enoates: Inhibitors of MenB from the M. tuberculosis Menaquinone Biosynthesis Pathway” (ACS Med Chem Lett, 2011)
